Read-outs that look alike come from different tables or passages of the source.
Key:
SARS-CoV-2 = test: Cytopathic effect (CPE) suppression effect confirmation test using HEK293T/ACE2-TMPRSS2 cells; assay type: cell-based
[1] = biological target: Recombinant SARS-CoV-2 3CL Protease (Severe acute respiratory syndrome coronavirus 2 (2019-nCoV) (SARS-CoV-2), UniProt P0DTD1); test: biochemical; assay type: biochemical; conditions: 50% SARS-CoV-2 3CL protease inhibitory concentration; read-out: IC50
[2] = Severe acute respiratory syndrome coronavirus 2, HEK-293T, 72 h, read-out: EC50 (50% SARS-CoV-2 infected cell death inhibitory concentration), class, HEK293T/ACE2-TMPRSS2 cells, CPE suppression, CellTiter-Glo 2.0 after 3 days culture
[3] = Severe acute respiratory syndrome coronavirus 2, HEK-293T, 72 h, HEK293T/ACE2-TMPRSS2 cells, CPE suppression, CellTiter-Glo 2.0 after 3 days culture, read-out: EC50 (50% SARS-CoV-2 infected cell death inhibitory concentration), class
[4] = Severe acute respiratory syndrome coronavirus 2, HEK-293T, 72 h, read-out: EC50 (50% SARS-CoV-2 infected cell death inhibitory concentration), HEK293T/ACE2-TMPRSS2 cells, CPE suppression, CellTiter-Glo 2.0 after 3 days culture

N#CCn1c(N2CC(O)(C(F)(F)F)C2)c(-c2ccc(F)c(Cl)c2)c(=O)n(-c2cnc3cc(F)ccn23)c1=O [Compound I-136]
EC50 (SARS-CoV-2; [2]): < 0.1 µM | IC50 [1]: < 0.01 µM

CC1(O)CC2(CN(c3c(-c4ccc(F)c(Cl)c4)c(=O)n(-c4cnc5cc(F)ccn45)c(=O)n3CC#N)C2)C1 [Compound I-137]
EC50 (SARS-CoV-2; [3]): 0.1 to 1 µM | IC50 [1]: 0.01 to 0.1 µM

CC1(O)CC2(CN(c3c(-c4ccc(F)c(Cl)c4)c(=O)n(-c4cnc5cc(Cl)ccn45)c(=O)n3CC#N)C2)C1 [Compound I-138]
EC50 (SARS-CoV-2; [3]): 0.1 to 1 µM | IC50 [1]: 0.01 to 0.1 µM

N#CCn1c(N2CC(C(F)(F)F)C2)c(-c2ccc(F)c(Cl)c2)c(=O)n(-c2cnc3cc(Cl)ccn23)c1=O [Compound I-139]
EC50 (SARS-CoV-2; [3]): < 0.1 µM | IC50 [1]: 0.01 to 0.1 µM

N#CCn1c(N2CC3(C2)CC(F)(F)C3)c(-c2ccc(F)c(Cl)c2)c(=O)n(-c2cnc3cc(Cl)ccn23)c1=O [Compound I-140]
EC50 (SARS-CoV-2; [2]): < 0.1 µM | IC50 [1]: < 0.01 µM

N#CCn1c(N2CCC(O)(C(F)(F)F)CC2)c(-c2ccc(F)c(Cl)c2)c(=O)n(-c2cnc3cc(Cl)ccn23)c1=O [Compound I-141]
EC50 (SARS-CoV-2; [3]): < 0.1 µM | IC50 [1]: 0.01 to 0.1 µM

N#CCn1c(N2CC(O)(C(F)(F)F)C2)c(-c2ccc(F)c(Cl)c2)c(=O)n(-c2cncc(Cl)c2)c1=O [Compound I-142]
EC50 (SARS-CoV-2; [4]): 0.00335 µM | IC50 [1]: 0.00046 µM

N#CCn1c(N2CC3(CCOC3)C2)c(Cc2cc(F)c(F)c(F)c2)c(=O)n(-c2nsc3ccccc23)c1=O [Compound I-143]
EC50 (SARS-CoV-2; [2]): 1 to 5 µM | IC50 [1]: > 0.1 µM

N#CCn1c(N2CC3(CCOC3)C2)c(Cc2cc(F)c(F)c(F)c2)c(=O)n(-c2cnc3cccnn23)c1=O [Compound I-144]
EC50 (SARS-CoV-2; [2]): 0.1 to 1 µM | IC50 [1]: > 0.1 µM

N#CCn1c(N2CC3(CCOC3)C2)c(Cc2cc(F)c(F)c(F)c2)c(=O)n(-c2cnc3cc(F)ccn23)c1=O [Compound I-145]
EC50 (SARS-CoV-2; [3]): 0.1 to 1 µM | IC50 [1]: 0.01 to 0.1 µM

N#CCn1c(N2C[C@H]3C[C@@H]2CN3)c(-c2ccc(F)c(Cl)c2)c(=O)n(-c2cncc(Cl)c2)c1=O [Compound I-146]
EC50 (SARS-CoV-2; [2]): 0.1 to 1 µM | IC50 [1]: < 0.01 µM

N#CCn1c(N2CC3(CCOC3)C2)c(-c2ccc(F)c(Cl)c2)c(=O)n(-c2cnc3cc(F)ccn23)c1=O [Compound I-147]
EC50 (SARS-CoV-2; [2]): < 0.1 µM | IC50 [1]: < 0.01 µM

N#CCn1c(N2CCC(F)(F)C2)c(-c2ccc(F)c(Cl)c2)c(=O)n(-c2cncc(Cl)c2)c1=O [Compound I-148]
EC50 (SARS-CoV-2; [2]): < 0.1 µM | IC50 [1]: < 0.01 µM

N#CCn1c(N2CC3(C2)CC(F)(F)C3)c(-c2ccc(F)c(Cl)c2)c(=O)n(-c2cnc3cc(F)ccn23)c1=O [Compound I-149]
EC50 (SARS-CoV-2; [2]): < 0.1 µM | IC50 [1]: < 0.01 µM

N#CCn1c(N2CCC(O)(C(F)(F)F)CC2)c(-c2ccc(F)c(Cl)c2)c(=O)n(-c2cnc3cc(F)ccn23)c1=O [Compound I-150]
EC50 (SARS-CoV-2; [2]): < 0.1 µM | IC50 [1]: < 0.01 µM

N#CCn1c(N2CC(F)(C3CC3)C2)c(-c2ccc(F)c(Cl)c2)c(=O)n(-c2cnc3cc(F)ccn23)c1=O [Compound I-151]
EC50 (SARS-CoV-2; [2]): < 0.1 µM | IC50 [1]: < 0.01 µM

N#CCn1c(N2CC3(CCCO3)C2)c(-c2ccc(F)c(Cl)c2)c(=O)n(-c2cnc3cc(F)ccn23)c1=O [Compound I-152]
EC50 (SARS-CoV-2; [2]): < 0.1 µM | IC50 [1]: < 0.01 µM

N#CCn1c(N2CCC(C(F)(F)F)CC2)c(-c2ccc(F)c(Cl)c2)c(=O)n(-c2cnc3cc(F)ccn23)c1=O [Compound I-153]
EC50 (SARS-CoV-2; [2]): < 0.1 µM | IC50 [1]: < 0.01 µM

N#CCn1c(N2Cc3ccccc3C2)c(Cc2cc(F)c(F)c(F)c2)c(=O)n(-c2nnc3ccccn23)c1=O [Compound I-156]
EC50 (SARS-CoV-2; [3]): < 0.1 µM | IC50 [1]: 0.01 to 0.1 µM

Cn1c(-n2c(=O)c(Cc3cc(F)c(F)c(F)c3)c(N3Cc4ccccc4C3)n(CC#N)c2=O)cc(=O)n1C [Compound I-157]
EC50 (SARS-CoV-2; [2]): 1 to 5 µM | IC50 [1]: > 0.1 µM

Cc1cc(-n2c(=O)c(Cc3cc(F)c(F)c(F)c3)c(N3Cc4ccccc4C3)n(CC#N)c2=O)cc(=O)[nH]1 [Compound I-159]
EC50 (SARS-CoV-2; [3]): 0.1 to 1 µM | IC50 [1]: 0.01 to 0.1 µM

Cc1cnnc(-n2c(=O)c(-c3ccc(F)c(Cl)c3)c(N3CC4(CCOC4)C3)n(CC#N)c2=O)c1 [Compound I-160]
EC50 (SARS-CoV-2; [2]): < 0.1 µM | IC50 [1]: < 0.01 µM

Cc1cc(-n2c(=O)c(-c3ccc(F)c(Cl)c3)c(N3CC4(CCOCC4)C3)n(CC#N)c2=O)cc(=O)[nH]1 [Compound I-161]
EC50 (SARS-CoV-2; [2]): 1 to 5 µM | IC50 [1]: < 0.01 µM

Cc1cc(-n2c(=O)c(-c3ccc(F)c(Cl)c3)c(N3CCC(C(F)(F)F)CC3)n(CC#N)c2=O)cc(=O)[nH]1 [Compound I-162]
EC50 (SARS-CoV-2; [3]): 0.1 to 1 µM | IC50 [1]: 0.01 to 0.1 µM

Cc1cc(-n2c(=O)c(-c3ccc(F)c(Cl)c3)c(N3CC4(C3)CC(F)(F)C4)n(CC#N)c2=O)cc(=O)[nH]1 [Compound I-163]
EC50 (SARS-CoV-2; [2]): 0.1 to 1 µM | IC50 [1]: < 0.01 µM

Cc1[nH]ncc1-n1c(=O)c(Cc2cc(F)c(F)c(F)c2)c(N2Cc3ccccc3C2)n(CC#N)c1=O [Compound I-164]
EC50 (SARS-CoV-2; [2]): < 0.1 µM | EC50 (SARS-CoV-2; read-out: EC50 (50% SARS-CoV-2 infected cell death inhibitory concentration), class, HEK293T/ACE2-TMPRSS2 cells, CPE suppression, CellTiter-Glo 2.0 after 3 days culture): 0.1 to 1 µM | IC50 [1]: > 0.1 µM

N#CCn1c(N2Cc3ccccc3C2)c(C(=O)c2cc(F)c(F)c(F)c2)c(=O)n(-c2cncc(Cl)c2)c1=O [Compound I-165]
EC50 (SARS-CoV-2; [4]): 0.228 µM | IC50 [1]: 3.8 µM

CC1(C)CCN(c2c(-c3ccc(F)c(Cl)c3)c(=O)n(-c3cc4n(c(=O)c3)CCC4)c(=O)n2CC#N)CC1 [Compound I-166]
EC50 (SARS-CoV-2; [2]): 1 to 5 µM | IC50 [1]: > 0.1 µM

N#CCn1c(N2Cc3ccccc3C2)c(Sc2cc(F)c(F)c(F)c2)c(=O)n(-c2cncc(Cl)c2)c1=O [Compound I-167]
EC50 (SARS-CoV-2; [4]): 0.0263 µM | IC50 [1]: 0.049 µM

N#CCn1c(-c2cc3ccccc3s2)c(Sc2cc(F)c(F)c(F)c2)c(=O)n(-c2cncc(Cl)c2)c1=O [Compound I-168]
EC50 (SARS-CoV-2; [3]): < 0.1 µM | IC50 [1]: 0.01 to 0.1 µM

N#CCn1c(N2CCC(F)(F)CC2)c(-c2cccc(C#N)c2)c(=O)n(-c2cncc(Cl)c2)c1=O [Compound I-169]
EC50 (SARS-CoV-2; [3]): < 0.1 µM | IC50 [1]: 0.01 to 0.1 µM

Cc1cc(-n2c(=O)c(-c3ccc(F)c(Cl)c3)c(N3CCC(C)(C)CC3)n(CC#N)c2=O)cc(=O)[nH]1 [Compound I-170]
EC50 (SARS-CoV-2; [3]): < 0.1 µM | IC50 [1]: 0.01 to 0.1 µM

N#CCn1c(N2CC3(CCOC3)C2)c(-c2ccccc2)c(=O)n(-c2cncc(Cl)c2)c1=O [Compound I-171]
EC50 (SARS-CoV-2; [2]): < 0.1 µM | IC50 [1]: < 0.01 µM

Cc1cc(-n2c(=O)c(-c3ccc(F)c(Cl)c3)c(N3C[C@H]4CCCC[C@H]4C3)n(CC#N)c2=O)cc(=O)[nH]1 [Compound I-172]
EC50 (SARS-CoV-2; [2]): < 0.1 µM | IC50 [1]: < 0.01 µM

Cc1cc(-n2c(=O)c(-c3ccc(F)c(Cl)c3)c(-c3cc4ccccc4s3)n(CC#N)c2=O)cc(=O)[nH]1 [Compound I-173]
EC50 (SARS-CoV-2; [2]): < 0.1 µM | IC50 [1]: < 0.01 µM

N#CCn1c(N2CCC(F)(F)CC2)c(-c2cccc(Cl)c2)c(=O)n(-c2cncc(Cl)c2)c1=O [Compound I-174]
EC50 (SARS-CoV-2; [2]): < 0.1 µM | IC50 [1]: < 0.01 µM

CC1(C)CN(c2c(-c3cccc(C#N)c3)c(=O)n(-c3cncc(Cl)c3)c(=O)n2CC#N)C1 [Compound I-175]
EC50 (SARS-CoV-2; [2]): < 0.1 µM | IC50 [1]: < 0.01 µM

CC1(C)CCN(c2c(-c3cccc(C#N)c3)c(=O)n(-c3cncc(Cl)c3)c(=O)n2CC#N)CC1 [Compound I-176]
EC50 (SARS-CoV-2; [2]): < 0.1 µM | IC50 [1]: < 0.01 µM

N#CCn1c(N2CC3(CCOC3)C2)c(-c2cccc(C(F)F)c2)c(=O)n(-c2cncc(Cl)c2)c1=O [Compound I-177]
EC50 (SARS-CoV-2; [2]): < 0.1 µM | IC50 [1]: < 0.01 µM

CC1(C)[C@@H]2CN(c3c(-c4cccc(Cl)c4)c(=O)n(-c4cncc(Cl)c4)c(=O)n3CC#N)C[C@@H]21 [Compound I-178]
EC50 (SARS-CoV-2; [2]): < 0.1 µM | IC50 [1]: < 0.01 µM

N#CCn1c(N2CC3(CCOC3)C2)c(-c2cc(Cl)cc(C#N)c2)c(=O)n(-c2cncc(Cl)c2)c1=O [Compound I-179]
EC50 (SARS-CoV-2; [2]): < 0.1 µM | IC50 [1]: < 0.01 µM

N#CCn1c(N2CC3(CCOC3)C2)c(-c2cc(F)cc(Cl)c2)c(=O)n(-c2cncc(Cl)c2)c1=O [Compound I-180]
EC50 (SARS-CoV-2; [2]): < 0.1 µM | IC50 [1]: < 0.01 µM

N#CCn1c(N2CC3(CCOC3)C2)c(-c2ccc(F)c(Cl)c2)c(=O)n(-c2cncc(Cl)c2)c1=O [Compound I-181]
EC50 (SARS-CoV-2; [2]): < 0.1 µM | IC50 [1]: < 0.01 µM

N#CCn1c(N2CC3(CCOC3)C2)c(-c2cccc(Cl)c2)c(=O)n(-c2cncc(Cl)c2)c1=O [Compound I-182]
EC50 (SARS-CoV-2; [4]): 0.0017 µM | IC50 [1]: 0.0004 µM
